Laboratory results published in patent US20060024392A1, “Compositions and methods for enhancing the effectiveness of a chemotherapeutic agent” (priority 2004, published 2006).

How the values were obtained:
[1] = system: NCM460 normal colon cells; assay: Sulforhodamine B (SRB) cell growth assay in NCM460 normal colon cells; format: cell-based, human
Method: HT-29, a cell line derived from colorectal adenocarcinoma (ATCC, HTB 38), grows in McCoy's 5A medium (Biowhittaker, Inc. Walkersville, Md.). NCM460, a cell line derived from a normal human colon (InCell Corp. San Antonio, Tex.), grows in M3 Base media (InCell Corp. San Antonio, Tex.).
Both cell lines are kept at 37° C. and 5% CO2 atmosphere. Both media are supplemented with 10% fetal bovine serum (FBS, Biowhittaker, Inc. Walkersville, Md.).
Cells are fixed in situ by the gentle addition of 50 μl of cold 50% (w/v) TCA (final concentration, 10% TCA) and incubated for 60 minutes at 4° C. The supernatant is discarded, and the plates are washed five times with tap water and air dried. Sulforhodamine B (SRB) solution (100 μl) at 0.4% (w/v) in 1% acetic acid is added to each well, and plates are incubated for 10 minutes at room temperature. After staining, unbound dye is removed by washing five times with 1% acetic acid and the plates are air dried. Bound stain is subsequently solubilized with 100 μl 10 mM trizma base for 5 minutes, and the absorbance at wavelength of 490 nm was spectrophotometrically measured using a microplate reader Elx800 (Bio-Tek instruments, Inc.).
Cells were seeded in 96-well cluster tissue culture plates (Costar), containing 100 μl complete growth medium per well at densities of 5,000 cells per well. Incubated at 37° C. in a humidified tissue culture incubator. After 24 Hour, 100 μl complete medium containing 5 half-log dilutions of the 5FU from 2*10^−4 to 2*10^−6 M was added into each well (final concentrations are from 10^−4 to 10^−6 M). Six replicates were used for each concentration. Media containing 0.125% DMSO was used as control. After 48 hours of incubation with 5FU in medium, cell proliferation was assessed using the SRB assay.
Percentage growth (Growth%) is calculated as: [(Ti−Tz)/(C−Tz)]×100 [absorbance measurements at time zero (Tz), control growth (C), and test growth in the presence of drug at the different concentration levels (Ti)].
Growth inhibition of 50% (GI50) is calculated from [(Ti−Tz)/(C−Tz)]×100=50, which is the drug concentration resulting in a 50% reduction in the net protein increase (as measured by SRB staining) in control cells during the drug incubation.
Similar method as Experiment 1 was used, except cells were exposed to 5FU at concentration ranging from 10^−4.5 to 10^−7 M. Media containing 0.01% DMSO was used as control. Lower concentrations were used since it was observed that 0.1% DMSO inhibited the growth of NCM460 cells. The experiment was repeated 5 times.
The protocol was the same as Experiment 3, except cells were exposed to 5FU at concentration ranging from 10^−5 to 10^−7 M with chokeberry ARE at concentration of 5, 15.6, 50 μg monomeric anthocyanin/ml growth media. […] Differences in response are most evident at the 5 FU concentration of 10^−6 M and ARE concentration of 15.6 μg monomeric anthocyanin/ml. In normal cells, there is no difference in the percent growth by 5FU with or without ARE, whereas in colon cancer cells, growth with 5FU alone was 80% of control, and further reduced to 40% with ARE and 5 FU.

colon cancer = conditions: clinical treatment of colon cancer; cited from earlier work

O=c1[nH]cc(F)c(=O)[nH]1 [5FU, 5-fluorouracil] showed a Growth % ([1]; 5FU 1.0E−4.5 M, experiment 1) of 45.13%, an OD ([1]; 5FU 1.0E−4.5 M, experiment 1) of 0.264 and a Growth % ([1]; 5FU 1.0E−4.5 M, experiment 2) of 33.85%. For the same molecule, the OD ([1]; 5FU 1.0E−4.5 M, experiment 2) was 0.242, the Growth % ([1]; 5FU 1.0E−4.5 M, experiment 3) was 36.70% and the OD ([1]; 5FU 1.0E−4.5 M, experiment 3) was 0.256. It also gave a Growth % ([1]; 5FU 1.0E−5 M, experiment 1) of 53.85%, an OD ([1]; 5FU 1.0E−5 M, experiment 1) of 0.281 and a Growth % ([1]; 5FU 1.0E−5 M, experiment 2) of 48.21%. For the same molecule, the OD ([1]; 5FU 1.0E−5 M, experiment 2) was 0.27, the Growth % ([1]; 5FU 1.0E−5 M, experiment 3) was 45.41% and the OD ([1]; 5FU 1.0E−5 M, experiment 3) was 0.275. For the same molecule, the Growth % ([1]; 5FU 1.0E−5 M, experiment 4) was 57.58%, the OD ([1]; 5FU 1.0E−5 M, experiment 4) was 0.285 and the Growth % ([1]; 5FU 1.0E−5 M, experiment 5) was 51.41%. The OD ([1]; 5FU 1.0E−5 M, experiment 5) was 0.279, the Growth % ([1]; 5FU 1.0E−5.5 M, experiment 1) was 55.38% and the OD ([1]; 5FU 1.0E−5.5 M, experiment 1) was 0.284. For the same molecule, the Growth % ([1]; 5FU 1.0E−5.5 M, experiment 2) was 67.69%, the OD ([1]; 5FU 1.0E−5.5 M, experiment 2) was 0.308 and the Growth % ([1]; 5FU 1.0E−5.5 M, experiment 3) was 60.55%. For the same molecule, the OD ([1]; 5FU 1.0E−5.5 M, experiment 3) was 0.308, the Growth % ([1]; 5FU 1.0E−5.5 M, experiment 4) was 75.38% and the OD ([1]; 5FU 1.0E−5.5 M, experiment 4) was 0.332. It also gave a Growth % ([1]; 5FU 1.0E−5.5 M, experiment 5) of 72.54%, an OD ([1]; 5FU 1.0E−5.5 M, experiment 5) of 0.339 and a Growth % ([1]; 5FU 1.0E−6 M, experiment 1) of 56.41%. For the same molecule, the OD ([1]; 5FU 1.0E−6 M, experiment 1) was 0.286, the Growth % ([1]; 5FU 1.0E−6 M, experiment 2) was 63.08% and the OD ([1]; 5FU 1.0E−6 M, experiment 2) was 0.299. It also gave a Growth % ([1]; 5FU 1.0E−6 M, experiment 3) of 66.06%, an OD ([1]; 5FU 1.0E−6 M, experiment 3) of 0.32 and a Growth % ([1]; 5FU 1.0E−6 M, experiment 4) of 93.56%. It also gave an OD ([1]; 5FU 1.0E−6 M, experiment 4) of 0.38, a Growth % ([1]; 5FU 1.0E−6 M, experiment 5) of 87.32% and an OD ([1]; 5FU 1.0E−6 M, experiment 5) of 0.381. It also gave a Growth % ([1]; 5FU 1.0E−6.5 M, experiment 1) of 59.49%, an OD ([1]; 5FU 1.0E−6.5 M, experiment 1) of 0.292 and a Growth % ([1]; 5FU 1.0E−6.5 M, experiment 2) of 83.59%. The OD ([1]; 5FU 1.0E−6.5 M, experiment 2) was 0.339, the Growth % ([1]; 5FU 1.0E−6.5 M, experiment 3) was 78.44% and the OD ([1]; 5FU 1.0E−6.5 M, experiment 3) was 0.347. The Growth % ([1]; 5FU 1.0E−6.5 M, experiment 4) was 97.35%, the OD ([1]; 5FU 1.0E−6.5 M, experiment 4) was 0.39 and the Growth % ([1]; 5FU 1.0E−6.5 M, experiment 5) was 92.61%. For the same molecule, the OD ([1]; 5FU 1.0E−6.5 M, experiment 5) was 0.396, the Growth % ([1]; 5FU 1.0E−7 M, experiment 4) was 99.62% and the OD ([1]; 5FU 1.0E−7 M, experiment 4) was 0.396. For the same molecule, the Growth % ([1]; 5FU 1.0E−7 M, experiment 5) was 89.79%, the OD ([1]; 5FU 1.0E−7 M, experiment 5) was 0.388 and the response rate (colon cancer) was 20%.
